Data: patent US20130040914A1, “PRODRUGS OF AN HIV REVERSE TRANSCRIPTASE INHIBITOR” (priority 2010, published 2013)
In brackets after ≈: the same amount, converted by molar mass.

Key:
[1] = Aqueous solubility (background statement); format: physicochemical; details: qualitative statement in Background
[2] = Oral bioavailability in pharmacokinetic studies in animals; format: in vivo; details: qualitative
[3] = biological target: HIV reverse transcriptase (Human immunodeficiency virus type 1 group M subtype B, UniProt P03366); details: qualitative statement in Background; cited from earlier work
[4] = Water solubility at room temperature (excess solid stirred in deionized water, HPLC); details: thermodynamic from solid; for solubility at 24 h: deionized water
Method: A stir bar was then placed in the tube and the tube placed on a multi-position stirrer plate. […] The solubility of each compound was determined via HPLC, wherein a portion of the supernatant was removed from the tube, diluted with ACN:water (50:50 by volume) as necessary to achieve a suitable concentration for analysis, and then analyzed by HPLC against a standard (=a solution of the K salt of Example 1 in ACN:water 50:50 by volume). One determination was made for each compound.
HPLC: column=Agilent Zorbax Eclipse (4.6×50 mm, 1.8 micron); mobile phase=0.1% H3PO4:ACN; gradient=90% to 10% H3PO4; flow rate=1.5 mL/minute; column temperature=45° C.; injection volume=25 μL; UV sampling with detection wavelength=210 nm; run time=15 minutes.

SMILES | aqueous solubility [1] | oral bioavailability [2] | non-nucleoside reverse transcriptase inhibition [3] | solubility at 24 h [4] | solubility at 4 h [4]
N#Cc1cc(Cl)cc(Oc2c(C(F)(F)F)ccn(Cc3n[nH]c4ncccc34)c2=O)c1 [Compound A, 3-chloro-5-{[2-oxo-1-(1H-pyrazolo[3,4-b]pyridin-3-ylmethyl)-4-(trifluoromethyl)-1,2-dihydropyridin-3-yl]oxy}benzonitrile] | relatively low | relatively low | potent | 0.2 µg/mL (≈ 0.449 µM) | 
N#Cc1cc(Cl)cc(Oc2c(Cl)ccn(Cc3n[nH]c4ncccc34)c2=O)c1 [Compound B, 3-chloro-5-{[4-chloro-2-oxo-1-(1H-pyrazolo[3,4-b]pyridin-3-ylmethyl)-1,2-dihydropyridin-3-yl]oxy}benzonitrile] | relatively low |  | potent |  | 
N#Cc1cc(Cl)cc(Oc2c(C(F)(F)F)ccn(Cc3nn(COP(=O)([O-])O)c4ncccc34)c2=O)c1.O.[K+] [Example 1, Potassium (3-{[3-(3-chloro-5-cyanophenoxy)-2-oxo-4-(trifluoromethyl)pyridin-1(2H)-yl]methyl}-1H-pyrazolo[3,4-b]pyridin-1-yl)methyl hydrogen phosphate monohydrate] |  |  |  |  | 12000 µg/mL
CN(CCN)C(=O)n1nc(Cn2ccc(C(F)(F)F)c(Oc3cc(Cl)cc(C#N)c3)c2=O)c2cccnc21.O=S(=O)(O)c1ccccc1 [Example 9, N-(2-Aminoethyl)-3-{[3-(3-chloro-5-cyanophenoxy)-2-oxo-4-(trifluoromethyl)pyridin-1(2H)-yl]methyl}-N-methyl-1H-pyrazolo[3,4-b]pyridine-1-carboxamide benzenesulfonate] |  |  |  | 1100 µg/mL | 
